Results published in BindingDB's records for PubMed 10779381 (University of Ferrara, 2000).
“And” between values parts separate entries of the source, which are not always exact repeats. Equal entries are not always repeated.

Columns and labels:
[1] = biological target: T1, Adenosine receptor A1 (Rattus norvegicus, UniProt P25099)
T1 sequence (P25099 whole entry): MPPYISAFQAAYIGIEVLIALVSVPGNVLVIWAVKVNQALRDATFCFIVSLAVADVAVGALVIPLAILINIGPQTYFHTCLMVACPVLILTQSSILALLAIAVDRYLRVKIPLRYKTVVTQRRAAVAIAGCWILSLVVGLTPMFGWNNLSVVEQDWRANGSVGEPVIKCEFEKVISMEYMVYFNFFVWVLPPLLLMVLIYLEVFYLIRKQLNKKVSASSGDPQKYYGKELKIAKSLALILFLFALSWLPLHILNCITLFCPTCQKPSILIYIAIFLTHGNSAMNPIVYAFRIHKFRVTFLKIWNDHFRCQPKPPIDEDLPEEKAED

[2] = biological target: T2, Adenosine receptor A3 (Homo sapiens, UniProt P0DMS8)
T2 sequence (P0DMS8 whole entry): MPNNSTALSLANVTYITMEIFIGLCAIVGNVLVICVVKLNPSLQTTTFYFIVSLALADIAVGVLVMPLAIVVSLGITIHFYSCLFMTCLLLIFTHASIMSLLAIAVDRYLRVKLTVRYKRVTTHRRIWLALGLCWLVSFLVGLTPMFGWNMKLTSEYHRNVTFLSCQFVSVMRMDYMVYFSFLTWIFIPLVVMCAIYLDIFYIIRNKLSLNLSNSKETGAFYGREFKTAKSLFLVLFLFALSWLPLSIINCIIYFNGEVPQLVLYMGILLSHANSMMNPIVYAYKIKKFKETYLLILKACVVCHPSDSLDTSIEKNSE

| Compound | Ki [1] [nM] | Ki [2] |
| --- | --- | --- |
| CCCn1cc2c(nc(NC(=O)Nc3ccc(OC)cc3)n3nc(-c4ccco4)nc23)n1 [J1.251.181G] | > 10000 | – |
| Nc1nc2c(cnn2CCc2ccccc2)c2nc(-c3ccco3)nn12 | – | > 10000 nM |
| Nc1nc2ccc(Cl)cc2c2nc(-c3ccco3)nn12 | – | 90 nM and 65 nM |
| CCCn1cc2c(nc(NC(=O)Nc3cccc(Cl)c3)n3nc(-c4ccco4)nc23)n1 [1-(3-chlorophenyl)-3-[2-(furan-2-yl)-8-propyl-8H-pyrazolo[4,3-e][1,2,4]triazolo[1,5-c]pyrimidin-5-yl]urea] | – | 0.48 nM and 0.98 nM |
